Data published in the CheMixHub viscosity set.
± gives the uncertainty stated by the source.

Assay: xn = mol fraction of the nth substance listed

COCCOCCOCCO + CCCO
viscosity [mPa·s], 101 kPa
Settings	298.15 K	308.15 K	318.15 K
x1 = 0.0134	1.952 ± 0.031	1.526 ± 0.025	1.246 ± 0.02
x1 = 0.0366	1.983 ± 0.031	1.555 ± 0.025	1.273 ± 0.021
x1 = 0.0639	2.034 ± 0.032	1.604 ± 0.026	1.32 ± 0.022
x1 = 0.1165	2.159 ± 0.034	1.692 ± 0.027	1.4 ± 0.023
x1 = 0.1568	2.273 ± 0.036	1.786 ± 0.029	1.484 ± 0.024
x1 = 0.2037	2.434 ± 0.039	1.894 ± 0.031	1.576 ± 0.026
x1 = 0.2664	2.652 ± 0.043	2.064 ± 0.034	1.715 ± 0.028
x1 = 0.3205	2.847 ± 0.047	2.213 ± 0.037	1.851 ± 0.031
x1 = 0.3498	3.007 ± 0.05	2.328 ± 0.039	1.927 ± 0.033
x1 = 0.3669	3.042 ± 0.051	2.349 ± 0.04	1.973 ± 0.033
x1 = 0.4076	3.264 ± 0.055	2.495 ± 0.043	2.085 ± 0.036
x1 = 0.4623	3.514 ± 0.06	2.678 ± 0.047	2.228 ± 0.039
x1 = 0.5601	4 ± 0.071	3.021 ± 0.054	2.51 ± 0.045
x1 = 0.6022	4.21 ± 0.076	3.158 ± 0.058	2.624 ± 0.048
x1 = 0.6441	4.433 ± 0.081	3.312 ± 0.061	2.741 ± 0.05
x1 = 0.7071	4.778 ± 0.09	3.545 ± 0.067	2.921 ± 0.055
x1 = 0.7635	5.059 ± 0.097	3.746 ± 0.073	3.074 ± 0.059
x1 = 0.8228	5.311 ± 0.1	3.929 ± 0.078	3.238 ± 0.064
x1 = 0.8494	5.452 ± 0.11	4.008 ± 0.08	3.312 ± 0.066
x1 = 0.9137	5.74 ± 0.12	4.23 ± 0.087	3.489 ± 0.071
x1 = 0.9358	5.875 ± 0.12	4.299 ± 0.089	3.55 ± 0.073
x1 = 0.961	6.08 ± 0.12	4.384 ± 0.092	3.616 ± 0.075

COCCOCCOCCOC + CCCO
viscosity [mPa·s]
Settings	298.15 K	308.15 K
101 kPa, x1 = 0.0386	1.777 ± 0.054	1.406 ± 0.044
101 kPa, x1 = 0.0615	1.714 ± 0.052	1.363 ± 0.043
101 kPa, x1 = 0.076	1.697 ± 0.052	1.34 ± 0.042
101 kPa, x1 = 0.1064	1.636 ± 0.05	1.318 ± 0.041
101 kPa, x1 = 0.1595	1.584 ± 0.049	1.28 ± 0.04
101 kPa, x1 = 0.2157	1.577 ± 0.048	1.288 ± 0.04
101 kPa, x1 = 0.2499	1.572 ± 0.048	1.274 ± 0.04
101 kPa, x1 = 0.2631	1.57 ± 0.048	1.275 ± 0.04
101 kPa, x1 = 0.3355	1.594 ± 0.049	1.288 ± 0.04
101 kPa, x1 = 0.422	1.607 ± 0.049	1.315 ± 0.041
101 kPa, x1 = 0.4701	1.635 ± 0.05	1.335 ± 0.042
101 kPa, x1 = 0.5148	1.654 ± 0.051	1.363 ± 0.043
101 kPa, x1 = 0.5848	1.693 ± 0.052	1.385 ± 0.043
101 kPa, x1 = 0.6662	1.743 ± 0.053	1.442 ± 0.045
101 kPa, x1 = 0.7126	1.772 ± 0.054	1.456 ± 0.045
101 kPa, x1 = 0.7778	1.826 ± 0.056	1.483 ± 0.046
101 kPa, x1 = 0.8098	1.853 ± 0.057	1.508 ± 0.047
101 kPa, x1 = 0.8789	1.89 ± 0.058	1.536 ± 0.048
101 kPa, x1 = 0.9504	1.942 ± 0.059	1.58 ± 0.049
101 kPa, x1 = 0.9719	1.956 ± 0.06	1.592 ± 0.049
101.33 kPa, x1 = 0.0081	1.918 ± 0.015	–
101.33 kPa, x1 = 0.0165	1.884 ± 0.015	–
101.33 kPa, x1 = 0.0245	1.856 ± 0.015	–
101.33 kPa, x1 = 0.0336	1.824 ± 0.014	–
101.33 kPa, x1 = 0.048	1.781 ± 0.014	–
101.33 kPa, x1 = 0.0692	1.725 ± 0.014	–
101.33 kPa, x1 = 0.0946	1.67 ± 0.013	–
101.33 kPa, x1 = 0.1327	1.614 ± 0.013	–
101.33 kPa, x1 = 0.1747	1.573 ± 0.013	–
101.33 kPa, x1 = 0.2259	1.549 ± 0.012	–
101.33 kPa, x1 = 0.2757	1.544 ± 0.012	–
101.33 kPa, x1 = 0.3226	1.548 ± 0.012	–
101.33 kPa, x1 = 0.3691	1.563 ± 0.013	–
101.33 kPa, x1 = 0.4157	1.578 ± 0.013	–
101.33 kPa, x1 = 0.4606	1.598 ± 0.013	–
101.33 kPa, x1 = 0.5153	1.625 ± 0.013	–
101.33 kPa, x1 = 0.5714	1.653 ± 0.013	–
101.33 kPa, x1 = 0.6283	1.684 ± 0.013	–
101.33 kPa, x1 = 0.6732	1.713 ± 0.014	–
101.33 kPa, x1 = 0.7227	1.743 ± 0.014	–
101.33 kPa, x1 = 0.7726	1.778 ± 0.014	–
101.33 kPa, x1 = 0.8162	1.812 ± 0.014	–
101.33 kPa, x1 = 0.8625	1.848 ± 0.015	–
101.33 kPa, x1 = 0.9112	1.888 ± 0.015	–
101.33 kPa, x1 = 0.9347	1.904 ± 0.015	–
101.33 kPa, x1 = 0.9568	1.919 ± 0.015	–
101.33 kPa, x1 = 0.9775	1.935 ± 0.015	–

Nc1ccccc1 + CCCO
viscosity [mPa·s]
Settings	294.15 K	298.15 K	303.15 K	308.15 K	313.15 K
100 kPa, x1 = 0.091	–	–	1.673 ± 0.019	–	1.319 ± 0.015
100 kPa, x1 = 0.1839	–	–	1.635 ± 0.019	–	1.275 ± 0.015
100 kPa, x1 = 0.2978	–	–	1.609 ± 0.019	–	1.255 ± 0.015
100 kPa, x1 = 0.3949	–	–	1.626 ± 0.019	–	1.271 ± 0.015
100 kPa, x1 = 0.4741	–	–	1.673 ± 0.019	–	1.31 ± 0.015
100 kPa, x1 = 0.5952	–	–	1.819 ± 0.021	–	1.399 ± 0.016
100 kPa, x1 = 0.7405	–	–	2.129 ± 0.025	–	1.602 ± 0.019
100 kPa, x1 = 0.8903	–	–	2.582 ± 0.03	–	1.958 ± 0.023
101.33 kPa, x1 = 0.1006	2.097 ± 0.033	1.902 ± 0.03	1.685 ± 0.027	1.501 ± 0.024	1.341 ± 0.022
101.33 kPa, x1 = 0.1991	2.123 ± 0.034	1.93 ± 0.031	1.703 ± 0.027	1.516 ± 0.025	1.357 ± 0.022
101.33 kPa, x1 = 0.2994	2.219 ± 0.035	1.993 ± 0.032	1.753 ± 0.028	1.56 ± 0.025	1.394 ± 0.023
101.33 kPa, x1 = 0.3992	2.336 ± 0.037	2.098 ± 0.034	1.846 ± 0.03	1.633 ± 0.027	1.446 ± 0.024
101.33 kPa, x1 = 0.5007	2.499 ± 0.04	2.234 ± 0.036	1.952 ± 0.032	1.727 ± 0.028	1.526 ± 0.025
101.33 kPa, x1 = 0.6011	2.689 ± 0.043	2.398 ± 0.039	2.092 ± 0.034	1.842 ± 0.03	1.638 ± 0.027
101.33 kPa, x1 = 0.7011	2.963 ± 0.047	2.641 ± 0.043	2.304 ± 0.037	2 ± 0.033	1.791 ± 0.029
101.33 kPa, x1 = 0.8002	3.289 ± 0.053	2.925 ± 0.047	2.575 ± 0.042	2.241 ± 0.037	1.981 ± 0.033
101.33 kPa, x1 = 0.8983	3.671 ± 0.059	3.245 ± 0.052	2.81 ± 0.046	2.455 ± 0.04	2.16 ± 0.036

COCCOCCOCCOC + CCCOC(C)=O
viscosity [mPa·s], 101.3 kPa
Settings	298.15 K	308.15 K	318.15 K
x1 = 0.005	0.558 ± 0.016	0.492 ± 0.015	0.442 ± 0.013
x1 = 0.0351	0.589 ± 0.017	0.517 ± 0.015	0.465 ± 0.014
x1 = 0.0513	0.607 ± 0.017	0.532 ± 0.016	0.476 ± 0.014
x1 = 0.0859	0.643 ± 0.018	0.562 ± 0.016	0.503 ± 0.015
x1 = 0.1416	0.709 ± 0.02	0.613 ± 0.017	0.544 ± 0.016
x1 = 0.1846	0.757 ± 0.021	0.652 ± 0.018	0.577 ± 0.016
x1 = 0.2654	0.857 ± 0.023	0.734 ± 0.02	0.647 ± 0.018
x1 = 0.3185	0.922 ± 0.024	0.785 ± 0.021	0.683 ± 0.019
x1 = 0.3767	1.009 ± 0.026	0.848 ± 0.022	0.733 ± 0.02
x1 = 0.426	1.078 ± 0.028	0.902 ± 0.024	0.784 ± 0.021
x1 = 0.5278	1.224 ± 0.031	1.019 ± 0.026	0.862 ± 0.023
x1 = 0.5868	1.313 ± 0.033	1.086 ± 0.028	0.921 ± 0.024
x1 = 0.627	1.388 ± 0.034	1.141 ± 0.029	–
x1 = 0.6327	–	–	0.964 ± 0.025
x1 = 0.69	1.486 ± 0.036	1.22 ± 0.03	1.025 ± 0.026
x1 = 0.7402	1.567 ± 0.038	1.282 ± 0.032	1.077 ± 0.027
x1 = 0.8031	1.67 ± 0.04	1.365 ± 0.033	1.137 ± 0.028
x1 = 0.8451	1.744 ± 0.042	1.427 ± 0.035	1.177 ± 0.029
x1 = 0.8711	1.784 ± 0.043	1.472 ± 0.036	1.207 ± 0.03
x1 = 0.9467	1.9 ± 0.045	1.542 ± 0.037	1.276 ± 0.031
x1 = 0.9582	1.91 ± 0.045	1.552 ± 0.037	1.285 ± 0.031
x1 = 0.979	1.939 ± 0.046	1.513 ± 0.1	1.302 ± 0.032
